In the supplement of paper PMC10307832:

What was measured:
Assay in all cases: relative viability (nuclei count vs DMSO), 5 days (fraction); higher = more cells survive
[1] = compound: C1=CC(=CC=C1NC(=S)NNC2=C(C=C(C=C2[N+](=O)[O-])C(F)(F)F)[N+](=O)[O-])F [Kobe2602] + Cc1nc(NC(=O)N2CCC[C@H]2C(N)=O)sc1-c1ccnc(C(C)(C)C(F)(F)F)c1 [Alpelisib] (partner 2 µM)
Procedure, shortened: (§1)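 Relative viability is defined as nuclei in treated wells over nuclei in vehicle wells. Duplicate plates were run and medians reported. Lung cancer cell lines in 1536-well plates were dosed by pin tool one day after seeding, with one drug or with a fixed anchor-drug dose plus five library-drug doses (not always all listed) in √10 steps, and nuclei were counted after 5 days.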

[2] = compound: C1=CC(=CC=C1NC(=S)NNC2=C(C=C(C=C2[N+](=O)[O-])C(F)(F)F)[N+](=O)[O-])F [Kobe2602] + O=C(c1cc(Cc2n[nH]c(=O)c3ccccc23)ccc1F)N1CCN(C(=O)C2CC2)CC1 [Olaparib] (partner 8 µM)
Procedure, shortened: as §1

[3] = compound: COc1cc2nccc(Oc3ccc(NC(=O)C4(C(=O)Nc5ccc(F)cc5)CC4)cc3)c2cc1OC [Cabozantinib] + CC(=O)Nc1cccc(-n2c(=O)n(C3CC3)c(=O)c3c(Nc4ccc(I)cc4F)n(C)c(=O)c(C)c32)c1 [Trametinib] (partner 0.02 µM)
Procedure, shortened: as §1

[4] = compound: COc1cc2nccc(Oc3ccc(NC(=O)C4(C(=O)Nc5ccc(F)cc5)CC4)cc3)c2cc1OC [Cabozantinib] + CS(=O)(=O)CCNCc1ccc(-c2ccc3ncnc(Nc4ccc(OCc5cccc(F)c5)c(Cl)c4)c3c2)o1 [Lapatinib] (partner 2 µM)
Procedure, shortened: as §1

Cell Line | relative viability ([1]; first compound 0.2 µM) | relative viability ([1]; first compound 0.6325 µM) | relative viability ([1]; first compound 2 µM) | relative viability ([1]; first compound 6.325 µM) | relative viability ([1]; first compound 20 µM) | relative viability ([2]; first compound 0.2 µM) | relative viability ([2]; first compound 0.6325 µM) | relative viability ([2]; first compound 2 µM) | relative viability ([2]; first compound 6.325 µM) | relative viability ([2]; first compound 20 µM) | relative viability ([3]; first compound 0.02 µM) | relative viability ([3]; first compound 0.06325 µM) | relative viability ([3]; first compound 0.2 µM) | relative viability ([3]; first compound 0.6325 µM) | relative viability ([3]; first compound 2 µM) | relative viability ([4]; first compound 0.02 µM) | relative viability ([4]; first compound 0.06325 µM) | relative viability ([4]; first compound 0.2 µM) | relative viability ([4]; first compound 0.6325 µM) | relative viability ([4]; first compound 2 µM)
NCI-H650 | 1.06 | 1.28 | 1.12 | 1.14 | 1.08 | 0.4 | 0.443 | 0.37 | 0.403 | 0.401 | 0.923 | 0.998 | 1.16 | 0.984 | 0.876 | 0.787 | 1.06 | 1.23 | 0.491 | 0.766
NCI-H661 | 0.565 | 0.644 | 0.738 | 0.661 | 0.955 | 0.714 | 0.695 | 0.697 | 0.754 | 0.802 | 0.542 | 0.653 | 0.579 | 0.572 | 0.605 | 0.46 | 0.467 | 0.502 | 0.449 | 0.343
NCI-H727 | 0.625 | 0.518 | 0.614 | 0.571 | 0.728 | 0.748 | 0.678 | 0.847 |  | 0.736 | 0.42 | 0.409 | 0.443 | 0.395 | 0.386 | 0.61 | 1.27 | 0.702 | 0.806 | 0.783
NCI-H838 | 0.909 | 1.01 | 0.915 | 1 | 0.976 | 0.733 | 0.779 | 0.759 | 0.725 | 0.764 | 0.487 | 0.533 | 0.496 | 0.51 | 0.498 | 1.01 | 0.997 | 0.895 | 0.881 | 0.877
NCI-H1355 | 0.791 | 0.938 | 0.79 | 0.751 | 0.845 | 0.742 | 0.747 | 0.712 | 0.727 | 0.601 | 0.433 | 0.462 | 0.441 | 0.421 | 0.435 | 0.825 | 1.12 | 1.02 | 0.979 | 1.03
NCI-H1395 | 1.05 | 1.29 | 1.09 | 1.14 | 1.03 | 0.447 | 0.487 | 0.463 | 0.535 | 0.486 | 0.981 | 1.18 | 1.09 | 1.06 | 0.938 | 0.913 | 1.03 | 0.948 | 1.1 | 0.905
NCI-H1437 | 0.938 | 1.01 | 0.914 | 0.956 | 0.938 | 0.666 | 0.632 | 0.6 | 0.562 | 0.475 | 0.571 | 0.498 | 0.501 | 0.598 | 0.55 | 0.892 | 0.91 | 0.798 | 0.823 | 0.779
NCI-H1651 | 0.964 | 0.932 | 0.792 | 0.809 | 0.965 | 0.186 | 0.165 | 0.189 | 0.19 | 0.193 | 0.915 | 0.86 | 0.845 | 0.774 | 0.82 | 0.812 | 0.794 | 0.71 | 0.786 | 0.754
